The record followed here is patent US20120121591A1 (priority 2009, published 2012).

By IC50 is commonly meant the concentration that gives 50% inhibition.

Format in all cases: cell-based
The target in one assay is hKv1.3 (Homo sapiens, UniProt P22001). Nature of the assay: cell-based. The settings on record: Kv1.3 (IWQ) IC50 (nM, Avg).
Assay [1] deals with IL-2 secretion from T cells in human whole blood. The settings on record: read-out: WB (IL-2) IC50 (nM, Avg).
The subject of assay [2] is IFN-g secretion from T cells in human whole blood. The settings on record: read-out: WB (IFNg) IC50 (nM, Avg).

hKv1.3, sequence (P22001 whole entry): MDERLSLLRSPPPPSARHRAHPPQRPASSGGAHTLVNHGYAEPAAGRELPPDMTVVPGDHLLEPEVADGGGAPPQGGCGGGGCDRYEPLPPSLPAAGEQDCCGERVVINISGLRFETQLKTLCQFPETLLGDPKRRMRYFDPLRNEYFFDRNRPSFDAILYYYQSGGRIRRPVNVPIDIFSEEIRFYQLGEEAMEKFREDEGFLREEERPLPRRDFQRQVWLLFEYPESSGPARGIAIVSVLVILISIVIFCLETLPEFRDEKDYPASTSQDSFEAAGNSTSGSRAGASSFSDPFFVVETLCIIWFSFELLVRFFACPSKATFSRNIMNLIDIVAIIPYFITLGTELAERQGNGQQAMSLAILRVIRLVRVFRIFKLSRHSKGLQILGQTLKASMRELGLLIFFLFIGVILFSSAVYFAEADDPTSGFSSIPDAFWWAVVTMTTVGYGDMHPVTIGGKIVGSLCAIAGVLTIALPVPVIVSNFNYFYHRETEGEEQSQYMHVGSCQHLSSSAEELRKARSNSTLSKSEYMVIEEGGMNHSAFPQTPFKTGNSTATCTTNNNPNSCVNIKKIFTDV

Regarding `CC[C@H](C)[C@@H]1NC(=O)[C@@H](NC(=O)[C@H](CO)NC(=O)[C@@H](N)CCCNC(=N)N)CSSC[C@@H](C(=O)O)NC(=O)[C@H]([C@@H](C)O)NC(=O)CNC(=O)[C@@H]2CSSC[C@@H]3NC(=O)[C@H](CCCCN)NC(=O)[C@H](Cc4ccccc4)NC(=O)[C@H](C)NC(=O)[C@H]([C@@H](C)O)NC(=O)[C@H](CSSC[C@H](NC(=O)[C@H](Cc4ccccc4)NC(=O)[C@H](CO)NC(=O)[C@H](CC(C)C)NC(=O)[C@H](CCCNC(=N)N)NC(=O)[C@H](Cc4ccc(O)cc4)NC(=O)[C@H](CCCCN)NC(=O)[C@H](CCSC)NC(=O)[C@H](CO)NC(=O)[C@H](Cc4c[nH]cn4)NC(=O)[C@H](CCCCN)NC3=O)C(=O)N[C@@H](CCCNC(=N)N)C(=O)N[C@@H](CCC(=O)O)C(=O)N[C@@H]([C@@H](C)O)C(=O)N2)NC(=O)[C@H](CCCNC(=N)N)NC(=O)[C@H](CO)NC(=O)[C@H](CCCCN)NC(=O)[C@@H]2CCCN2C(=O)[C@H]([C@@H](C)CC)NC(=O)[C@H]([C@@H](C)O)NC(=O)[C@H](CC(=O)O)NC1=O` [[Lys16, Glu30]ShK], the figures for the IC50 (on hKv1.3; in assay [1]; in assay [2]) were 0.073 nM, 0.032 nM and 0.081 nM, respectively.
The like results for `CC[C@H](C)[C@@H]1NC(=O)[C@@H](NC(=O)[C@H](CO)NC(=O)[C@@H](N)CCCNC(=N)N)CSSC[C@@H](C(N)=O)NC(=O)[C@H]([C@@H](C)O)NC(=O)CNC(=O)[C@@H]2CSSC[C@@H]3NC(=O)[C@H](CCCCN)NC(=O)[C@H](Cc4ccccc4)NC(=O)[C@H](C)NC(=O)[C@H]([C@@H](C)O)NC(=O)[C@H](CSSC[C@H](NC(=O)[C@H](Cc4ccccc4)NC(=O)[C@H](CO)NC(=O)[C@H](CC(C)C)NC(=O)[C@H](CCCNC(=N)N)NC(=O)[C@H](Cc4ccc(O)cc4)NC(=O)[C@H](CCCCN)NC(=O)[C@H](Cc4c[nH]cn4)NC(=O)[C@H](CO)NC(=O)[C@H](Cc4c[nH]cn4)NC(=O)[C@H](CCCCN)NC3=O)C(=O)N[C@@H](CCCNC(=N)N)C(=O)N[C@@H](CCCCN)C(=O)N[C@@H]([C@@H](C)O)C(=O)N2)NC(=O)[C@H](CCCNC(=N)N)NC(=O)[C@H](CO)NC(=O)[C@H](CCCCN)NC(=O)[C@@H]2CCCN2C(=O)[C@H]([C@@H](C)CC)NC(=O)[C@H]([C@@H](C)O)NC(=O)[C@H](CC(=O)O)NC1=O` [[Lys16, His21]ShK-amide] were, in that order, 0.219 nM, 5.5 nM and 9.25 nM.
The like results for `CC[C@H](C)[C@@H]1NC(=O)[C@H](CO)NC(=O)[C@H](Cc2c[nH]cn2)NC(=O)[C@H](CCCCN)NC(=O)[C@@H]2CSSC[C@@H]3NC(=O)[C@H]([C@@H](C)O)NC(=O)[C@H](CCCCN)NC(=O)[C@H](CCCNC(=N)N)NC(=O)[C@H](CSSC[C@H](NC(=O)[C@H](CCCNC(=N)N)NC(=O)[C@H](CO)NC(=O)[C@H](CCCCN)NC(=O)[C@@H]4CCCN4C(=O)[C@H]([C@@H](C)CC)NC(=O)[C@H]([C@@H](C)O)NC(=O)[C@H](CC(=O)O)NC(=O)[C@H]([C@@H](C)CC)NC(=O)[C@@H](NC(=O)[C@H](CO)NC(=O)[C@@H](N)CCCNC(=N)N)CSSC[C@@H](C(N)=O)NC(=O)[C@H]([C@@H](C)O)NC(=O)CNC3=O)C(=O)N[C@@H]([C@@H](C)O)C(=O)N[C@@H](C)C(=O)N[C@@H](Cc3ccccc3)C(=O)N[C@@H](CCCCN)C(=O)N2)NC(=O)[C@H](Cc2ccccc2)NC(=O)[C@H](CO)NC(=O)[C@H](CC(C)C)NC(=O)[C@H](CCCNC(=N)N)NC(=O)[C@H](Cc2ccc(O)cc2)NC(=O)[C@H](CCCCN)NC1=O` [[Lys16, Ile21]ShK-amide] were, in that order, 0.14 nM, 2.49 nM and 5.77 nM.
In the case of `CC[C@H](C)[C@@H]1NC(=O)[C@@H](NC(=O)[C@H](CO)NC(=O)[C@@H](N)CCCNC(=N)N)CSSC[C@@H](C(N)=O)NC(=O)[C@H]([C@@H](C)O)NC(=O)CNC(=O)[C@@H]2CSSC[C@@H]3NC(=O)[C@H](CCCCN)NC(=O)[C@H](Cc4ccccc4)NC(=O)[C@H](C)NC(=O)[C@H]([C@@H](C)O)NC(=O)[C@H](CSSC[C@H](NC(=O)[C@H](Cc4ccccc4)NC(=O)[C@H](CO)NC(=O)[C@H](CC(C)C)NC(=O)[C@H](CCCNC(=N)N)NC(=O)[C@H](Cc4ccc(O)cc4)NC(=O)[C@H](CCCCN)NC(=O)[C@H](CC(C)C)NC(=O)[C@H](CO)NC(=O)[C@H](Cc4c[nH]cn4)NC(=O)[C@H](CCCCN)NC3=O)C(=O)N[C@@H](CCCNC(=N)N)C(=O)N[C@@H](CCCCN)C(=O)N[C@@H]([C@@H](C)O)C(=O)N2)NC(=O)[C@H](CCCNC(=N)N)NC(=O)[C@H](CO)NC(=O)[C@H](CCCCN)NC(=O)[C@@H]2CCCN2C(=O)[C@H]([C@@H](C)CC)NC(=O)[C@H]([C@@H](C)O)NC(=O)[C@H](CC(=O)O)NC1=O` [[Lys16, Leu21]ShK-amide], the IC50 on hKv1.3 came to 0.213 nM; in assay [1], 0.889 nM; in assay [2], 0.636 nM.
As for `CC[C@H](C)[C@@H]1NC(=O)[C@@H](NC(=O)[C@H](CO)NC(=O)[C@@H](N)CCCNC(=N)N)CSSC[C@@H](C(=O)O)NC(=O)[C@H]([C@@H](C)O)NC(=O)CNC(=O)[C@@H]2CSSC[C@@H]3NC(=O)[C@H](CCCCN)NC(=O)[C@H](Cc4ccccc4)NC(=O)[C@H](C)NC(=O)[C@H]([C@@H](C)O)NC(=O)[C@H](CSSC[C@H](NC(=O)[C@H](Cc4ccccc4)NC(=O)[C@H](CO)NC(=O)[C@H](CC(C)C)NC(=O)[C@H](CCCNC(=N)N)NC(=O)[C@H](Cc4ccc(O)cc4)NC(=O)[C@H](CCCCN)NC(=O)[C@H](CCSC)NC(=O)[C@H](CO)NC(=O)[C@H](Cc4c[nH]cn4)NC(=O)[C@H](CCCCN)NC3=O)C(=O)N[C@@H](CCCCN)C(=O)N[C@@H](CCCCN)C(=O)N[C@@H]([C@@H](C)O)C(=O)N2)NC(=O)[C@H](CCCNC(=N)N)NC(=O)[C@H](CO)NC(=O)[C@H](CCCCN)NC(=O)[C@@H]2CCCN2C(=O)[C@H]([C@@H](C)CC)NC(=O)[C@H]([C@@H](C)O)NC(=O)[C@H](CC(=O)O)NC1=O` [[Lys16, Lys29]ShK], the IC50 at hKv1.3 amounted to 0.071 nM; in assay [1], 0.112 nM; in assay [2], 0.143 nM.
The like results for `CC[C@H](C)[C@@H]1NC(=O)[C@@H](NC(=O)[C@H](CO)NC(=O)[C@@H](N)CCCNC(=N)N)CSSC[C@@H](C(N)=O)NC(=O)[C@H]([C@@H](C)O)NC(=O)CNC(=O)[C@@H]2CSSC[C@@H]3NC(=O)[C@H](CCCCN)NC(=O)[C@H](Cc4ccccc4)NC(=O)[C@H](C)NC(=O)[C@H]([C@@H](C)O)NC(=O)[C@H](CSSC[C@H](NC(=O)[C@H](Cc4ccccc4)NC(=O)[C@H](CO)NC(=O)[C@H](CC(C)C)NC(=O)[C@H](CCCNC(=N)N)NC(=O)[C@H](Cc4ccc(O)cc4)NC(=O)[C@H](CCCCN)NC(=O)[C@H](CC[S+](C)[O-])NC(=O)[C@H](CO)NC(=O)[C@H](Cc4c[nH]cn4)NC(=O)[C@H](CCCCN)NC3=O)C(=O)N[C@@H](CCCNC(=N)N)C(=O)N[C@@H](CCCCN)C(=O)N[C@@H]([C@@H](C)O)C(=O)N2)NC(=O)[C@H](CCCNC(=N)N)NC(=O)[C@H](CO)NC(=O)[C@H](CCCCN)NC(=O)[C@@H]2CCCN2C(=O)[C@H]([C@@H](C)CC)NC(=O)[C@H]([C@@H](C)O)NC(=O)[C@H](CC(=O)O)NC1=O` (stereo partly drawn) [[Lys16, Met(O)21]ShK-amide] were, in that order, 0.106 nM, 0.24 nM and 0.289 nM.
For the compound `CCCC[C@@H]1NC(=O)[C@H](CO)NC(=O)[C@H](Cc2c[nH]cn2)NC(=O)[C@H](CCCCN)NC(=O)[C@@H]2CSSC[C@@H]3NC(=O)[C@H]([C@@H](C)O)NC(=O)[C@H](CCCNC(=N)N)NC(=O)[C@H](CCCNC(=N)N)NC(=O)[C@H](CSSC[C@H](NC(=O)[C@H](CCCNC(=N)N)NC(=O)[C@H](CO)NC(=O)[C@H](CCCCN)NC(=O)[C@@H]4CCCN4C(=O)[C@H]([C@@H](C)CC)NC(=O)[C@H]([C@@H](C)O)NC(=O)[C@H](CC(=O)O)NC(=O)[C@H]([C@@H](C)CC)NC(=O)[C@@H](NC(=O)[C@H](CO)NC(=O)[C@@H](N)CCCNC(=N)N)CSSC[C@@H](C(N)=O)NC(=O)[C@H]([C@@H](C)O)NC(=O)CNC3=O)C(=O)N[C@@H]([C@@H](C)O)C(=O)N[C@@H](C)C(=O)N[C@@H](Cc3ccccc3)C(=O)N[C@@H](CCCCN)C(=O)N2)NC(=O)[C@H](Cc2ccccc2)NC(=O)[C@H](CO)NC(=O)[C@H](CC(C)C)NC(=O)[C@H](CCCNC(=N)N)NC(=O)[C@H](Cc2ccc(O)cc2)NC(=O)[C@H](CCCCN)NC1=O` [[Lys16, Nle21,Arg30]ShK-amide], the IC50 against hKv1.3 was 0.423 nM; in assay [1], 0.953 nM; in assay [2] it was 1.9 nM.
The matching figures for `CCCC[C@@H]1NC(=O)[C@H](CO)NC(=O)[C@H](Cc2c[nH]cn2)NC(=O)[C@H](CCCCN)NC(=O)[C@@H]2CSSC[C@@H]3NC(=O)[C@H]([C@@H](C)O)NC(=O)[C@H](CCC(=O)O)NC(=O)[C@H](CCCNC(=N)N)NC(=O)[C@H](CSSC[C@H](NC(=O)[C@H](CCCNC(=N)N)NC(=O)[C@H](CO)NC(=O)[C@H](CCCCN)NC(=O)[C@@H]4CCCN4C(=O)[C@H]([C@@H](C)CC)NC(=O)[C@H]([C@@H](C)O)NC(=O)[C@H](CC(=O)O)NC(=O)[C@H]([C@@H](C)CC)NC(=O)[C@@H](NC(=O)[C@H](CO)NC(=O)[C@@H](N)CCCNC(=N)N)CSSC[C@@H](C(N)=O)NC(=O)[C@H]([C@@H](C)O)NC(=O)CNC3=O)C(=O)N[C@@H]([C@@H](C)O)C(=O)N[C@@H](C)C(=O)N[C@@H](Cc3ccccc3)C(=O)N[C@@H](CCCCN)C(=O)N2)NC(=O)[C@H](Cc2ccccc2)NC(=O)[C@H](CO)NC(=O)[C@H](CC(C)C)NC(=O)[C@H](CCCNC(=N)N)NC(=O)[C@H](Cc2ccc(O)cc2)NC(=O)[C@H](CCCCN)NC1=O` [[Lys16, Nle21,Glu30]ShK-amide]: 1.88 nM, 3.18 nM and 5.03 nM.
